Test results published in patent US20260159854A1, “NOVEL CARRIERS FOR NUCLEIC ACID AND/OR PROTEIN DELIVERY” (LUDWIG-MAXIMILIANS-UNIVERSITÄT MÜNCHEN, priority 2022, published 2026).

Columns and labels:
[1] = Particle size, polydispersity and zeta potential measurement (DLS, ELS); format: physicochemical; set-up: Zeta / Size: unit not given here
Description: 6.6 Particle Size and Zeta Potential Measurement for pDNA, mRNA, siRNA, Cas9 mRNA/sgRNA and Cas9 mRNA/sgRNA/ssDNA Polyplexes as Well as mRNA LNPs
Measurements of size and zeta potential were performed with a Zetasizer Nano ZS (Malvern Instruments, Malvern, Worcestershire, U.K.) in a folded capillary cell (DTS1070) by dynamic and electrophoretic laser-light scattering (DLS, ELS). […] Samples were measured three times with six sub runs per measurement. For measurement of the zeta potential, all samples were diluted to 800 μL with HBG or HEPES (for siRNA polyplexes) directly before measurement. Parameters were identical to the size measurement apart from an equilibration time of 60 sec. Three measurements with 15 sub runs lasting 10 sec each were performed, and zeta potentials were calculated by the Smuchowski equation.

[2] = system: N2a tumor-bearing A/J mice; assay: Ex vivo luciferase expression after intravenous injection of mRNA polyplexes; format: in vivo
Description: Neuro2a cells (10^6 cells/150 μL PBS) were inoculated subcutaneously into the left flank of 6-week-old female A/J mice (Envigo RMS GmbH, Dusseldorf, Germany). Mice were randomly divided into groups of three (in the case of mRNA LNPs) or five (in the case of mRNA polyplexes) and were housed in isolated ventilated cages under specific pathogen free conditions with a 12 h day/night interval, and food and water ad libitum. Weight and general well-being were monitored continuously. Tumor size was measured with a caliper and determined by formula: a*b^2/2 (a=longest side of the tumor; b=widest side vertical to a). When tumors reached a size of 250-500 mm3, the experiments were performed by intravenous tail vein injection of polyplexes or LNPs formed as described in 6.1 and 6.3, containing 1 μg, 3 μg or 10 μg of stabilized firefly luciferase encoding mRNA (CleanCap™ FLuc mRNA (5moU); Trilink Biotechnologies, San Diego, CA, USA) in 150 μL HBG. Polyplexes containing 10 μg mRNA were dialyzed for 1 h at 4° C. against HBG (dialysis membrane MWCO 100-500 Da; Spectra/Por®, Carl Roth, Karlsruhe, Germany) prior to application to remove small amounts of ethanol. […] The luciferase gene expression was determined as described above and is presented as relative light units (RLU) per gram (g) tumor/organ.
To evaluate luciferase mRNA delivery by an ex vivo luciferase gene expression assay, organ and tumor tissues were homogenized in Luciferase Cell Culture Lysis Reagent 1× (Promega, Mannheim, Germany), supplemented with 1% (v/v) protease and phosphatase inhibitor cocktail (Sigma-Aldrich, Munich, Germany) using a tissue and cell homogenizer (FastPrep®-24, MP Biomedicals, USA). […] Luciferase activity in 25 μL supernatant was measured in a Centro LB 960 plate reader luminometer (Berthold Technologies, Bad Wildbad, Germany) for 10 sec after addition of 100 μL/well of a LAR buffer solution (20 mM glycylglycine, 1.0 mM MgCl2, 0.10 mM EDTA, 3.3 mM DTT, 0.55 mM ATP, and 0.27 mM coenzyme A; pH 8-8.5) supplemented with 5% (v/v) of a mixture of 10 mM luciferin and 29 mM glycylglycine.

[3] = system: N2a cells; assay: Co-delivery efficiency of mRNA/pDNA polyplexes by flow cytometry; format: cell-based, murine; settings: N/P 18, 25 and 50 ng combined nucleic acid/well
Description: CleanCap® mCherry mRNA (5moU) (Trilink Biotechnologies, San Diego, CA, USA) and pEGFP-N1 pDNA (Clontech Laboratories, Inc. (now Takara Bio USA, Inc., San Jose, CA, USA)) at a fixed weight ratio of 1:1 were mixed and diluted in HBG. Calculated amounts of aminolipid at indicated N/P (nitrogen/phosphate) ratios (see above) were diluted in separate tubes of HBG. Equal volumes of nucleic acid solution and aminolipid solution were mixed by rapid pipetting and incubated 40 min at RT in a closed Eppendorf reaction tube. The final concentration of nucleic acid in the polyplex solution was 5 μg/mL (2.5 μg/mL mCherry mRNA plus 2.5 μg/mL pEGFP-N1 pDNA).
mRNA/pDNA polyplex treatments were performed in triplicate in 96-well plates. N2a cells were seeded 24 h prior to transfection (10,000 cells/well). On the next day, the medium was replaced with 80 μL of fresh pre-warmed medium containing 10% (v/v) FBS. The nanoparticles were prepared as described above, and the volumes of 10 and 5 μL of polyplex solution (2.5 μg/mL mCherry mRNA and 2.5 μg/mL pEGFP-N1 pDNA) were added. 20 μL HBG buffer per well was used as negative control. After 24 h of treatment, cells were collected and re-suspended in PBS solution containing 10% (v/v) FBS (FACS buffer) for flow cytometric evaluation. All samples were analyzed by flow cytometry using a CytoFLEX S Flow Cytometer (Beckman Coulter, Brea, CA, USA). Shortly before the measurement, 1 ng/μL 4′, 6-diamidino-2-phenylindole (DAPI) was added and used to discriminate between viable and dead cells. The cellular fluorescence was assayed by excitation of DAPI at 405 nm and detection of emission at 450 nm. Only isolated viable cells were evaluated. Gates were set compared to control measurements with HBG buffer-treated cells. […] Flow cytometry data were analyzed using FlowJo™ v10.8 flow cytometric analysis software by FlowJo, LLC (Becton, Dickinson and Company, U.S.). The cellular fluorescence expression was assayed by excitation at 561 nm and 488 nm, the detection of emission at 610 nm and 530 nm for mCherry and eGFP, respectively.

[4] = system: N2a cells; assay: Luciferase expression assay of pDNA polyplexes in N2a cells; format: cell-based, murine; settings: for transfection efficiency (luciferase expression) of pDNA polyplexes: 24 h, standard pDNA dose 200 ng/well, compared with LPEI N/P 6; for dose dependence of pDNA transfection efficiency: dose titration 200, 100, 50, 26, 14 ng pCMVLuc/well
[5] = system: HeLa cells; assay: CellTiterGlo assay (relative metabolic activity); format: cell-based; settings: for toxicity (relative metabolic activity, CellTiter Glo): pDNA polyplexes 200 ng/well, 24 h, vs non-reducible analogs
Description: HeLa cells were seeded 24 h prior to transfection (5000 cells/well) in 96-well plates. Immediately prior to transfection, the medium was replaced with suitable amounts of fresh medium containing 10% (v/v) FBS to reach a final volume of 100 μL during transfection. The nanoparticles were prepared as described in section 6.1 and transfected with indicated doses. The medium was removed at 24 h after transfection, and 25 μL of fresh, pre-warmed medium as well as 25 μL of CellTiterGlo® Reagent (Promega, Mannheim, Germany) were added to each well [S. Berger et al., Biomacromolecules 2021, 22, 1282; A. Krhač Levačić et al., J Controlled Release 2021, 339, 27]. After incubation on an orbital shaker for 30 min at RT, luminescence was recorded using a Centro LB 960 plate reader luminometer (Berthold Technologies, Bad Wildbad, Germany). The luminescent signals (in RLU) of the samples were normalized to the luminescent signal of the negative control (HBG buffer-treated control cells). Results were presented as relative metabolic activity related to the negative control. Experiments were performed as triplicates.

[6] = system: Huh7 cells; assay: Luciferase expression assay of pDNA polyplexes in Huh7 cells; format: cell-based, human
[7] = system: N2a cells; assay: Luciferase expression assay of mRNA polyplexes in N2a cells; format: cell-based, murine
[8] = Cas9 mRNA/sgDMDex23 polyplexes, N/P 24, combined nucleic acid 12.5 μg/mL
[9] = mRNA LNPs, 12.5 μg/mL CleanCap FLuc mRNA (5moU), N/P 9, molar ratios see Table A
[10] = pDNA polyplexes, N/P 12, 10 μg/mL pCMVLuc
[11] = mRNA polyplexes, 12.5 μg/mL CleanCap FLuc mRNA (5moU), N/P 12 (1611, 1719, 1722, 1732), N/P 24 (1614), N/P 18 (1621, 1747)
[12] = Cas9 mRNA/sgGFP1 polyplexes, N/P 18, combined nucleic acid 5.0 μg/mL
[13] = PEGylated pDNA polyplexes 25% PEG, 10 μg/mL pCMVLuc
[14] = Targeted pDNA polyplexes 12.5% PEG 2k, 12.5% PEG-GE11, 10 μg/mL pCMVLuc
[15] = Unmodified pDNA polyplexes 0%, 10 μg/mL pCMVLuc
[16] = pDNA polyplexes, N/P 18, 10 μg/mL pCMVLuc

K(8Oc)2-Stp-K(8Oc)-K(8Oc) [compound 1620]
Pdl [1, 8]: 0.130 | Z-average [1, 8]: 134.3 nm | Zeta potential [1, 8]: 22.7 mV | Pdl [1, 9]: 0.152 | Z-average [1, 9]: 271.1 nm | Zeta potential [1, 9]: −1.41 mV

[K(12He)]2-Stp2-[K(12He)]2 [compound 1760]
in vivo luciferase expression of mRNA polyplexes ([2]; tumors, lungs, liver, spleen): great in vivo performance

K(12Bu)-Stp-K(12Bu) [compound 1763]
mCherry mRNA/eGFP pDNA co-expression (co-delivery efficiency) [3]: most potent structures

K(12Oc)2-Stp2-K[K(12Oc)2] [compound 1717]
transfection efficiency (luciferase expression) of pDNA polyplexes [4]: most potent pDNA carriers

[K(12Oc)]2-Stp-[K(12Oc)]2 [compound 1718]
Pdl [1, 8]: 0.223 | Z-average [1, 8]: 107.5 nm | Zeta potential [1, 8]: 36.0 mV | Pdl [1, 9]: 0.140 | Z-average [1, 9]: 198.1 nm | Zeta potential [1, 9]: 0.03 mV

K[K(12Oc)2]-Stp-K[K(12Oc)2] [compound 1720]
Pdl [1, 9]: 0.196 | Z-average [1, 9]: 209.8 nm | Zeta potential [1, 9]: 0.70 mV

K(12Oc)2-Stp2 [compound 1710]
Pdl [1, 10]: 0.246 ± 0.024 | Z-average [1, 10]: 111.8 ± 11.4 nm | Zeta potential [1, 10]: 15.6 ± 2.1 mV | dose dependence of pDNA transfection efficiency [4]: good performance only at the highest dose

K(8Oc)2-Stp2-K(8Oc)-K(8Oc) [compound 1731]
Z-average [1, 8]: 67.5 nm | Zeta potential [1, 8]: 37.5 mV

CCCCCCCCCCCCN(CCCCCCCCCCCC)CCCCCCCC(=O)NCCSSCCNC(=O)CCC(=O)NCCCC[C@H](NC(=O)CCC(=O)NCCNCCNCCNCCNC(=O)[C@@H](N)CCCCNC(=O)CCC(=O)NCCSSCCNC(=O)CCCCCCCN(CCCCCCCCCCCC)CCCCCCCCCCCC)C(=O)O [compound 1821, K(ssbb-12Oc)-Stp-K(ssbb-12Oc)]
toxicity (relative metabolic activity, CellTiter Glo) [5]: significantly less toxic

CCCCCCCCN(CCCCCCCC)CCCCCCCC(=O)NCCCC[C@H](NC(=O)CCCCCCCN(CCCCCCCC)CCCCCCCC)C(=O)NCCSSCCNC(=O)CCC(=O)NCCCC[C@H](NC(=O)CCC(=O)NCCSSCCNC(=O)[C@H](CCCCNC(=O)CCCCCCCN(CCCCCCCC)CCCCCCCC)NC(=O)CCCCCCCN(CCCCCCCC)CCCCCCCC)C(=O)NCCNCCNCCNCCNC(=O)CCC(=O)NCCNCCNCCNCCNC(=O)CCC(=O)O [compound 1824, [(8Oc)2)-K-ssbb]2-K-Stp2]
toxicity (relative metabolic activity, CellTiter Glo) [5]: significantly less toxic

K(12Oc)2-Stp [compound 1614]
Pdl [1, 11]: 0.223 | Z-average [1, 11]: 111.6 nm | Zeta potential [1, 11]: 15.7 mV

K[K[12Oc)2]2-Stp [compound 1613]
Pdl [1, 9]: 0.159 | Z-average [1, 9]: 176.8 nm | Zeta potential [1, 9]: −3.03 mV

[K(8Oc)]2-Stp2-[K(8Oc)]2 [compound 1745]
Pdl [1, 12]: 0.266 ± 0.046 | Z-average [1, 12]: 99.4 ± 7.9 nm | Zeta potential [1, 12]: 11.9 ± 1.6 mV

K[K[8Oc)2]2-Stp2 [compound 1730]
Pdl [1, 13]: 0.22 | Size [1, 13]: 100 | Zeta [1, 13]: 2.0 | Pdl [1, 14]: 0.17 | Size [1, 14]: 125 | Zeta [1, 14]: 2.0 | Pdl [1, 15]: 0.21 | Size [1, 15]: 109 | Zeta [1, 15]: 15.9 | PDI [1, 16]: 0.10 ± 0.01 | Z-average [1, 16]: 95.3 ± 1.6 nm | Zeta potential [1, 16]: 21.7 ± 0.6 mV | RLU values of targeted polyplexes in comparison to shielded polyplexes ([6]; N/P 12, pDNA dose 50 ng/well): 32.8 fold | RLU values of targeted polyplexes in comparison to shielded polyplexes ([6]; N/P 12, pDNA dose 100 ng/well): 25.5 fold

K(12Oc)2-Stp-K(12Oc)-K(12Oc) [compound 1612]
Pdl [1, 9]: 0.273 | Z-average [1, 9]: 275.8 nm | Zeta potential [1, 9]: 1.88 mV

CCCCCCCCCCCCN(CCCCCCCCCCCC)CCCCCCCC(=O)NCCCC[C@H](NC(=O)CCC(=O)NCCNCCNCCNCCNC(=O)[C@@H](N)CCCCNC(=O)CCCCCCCN(CCCCCCCCCCCC)CCCCCCCCCCCC)C(=O)O [compound 1611, K(12Oc)-Stp-K(12Oc)]
in vivo toxicity / tolerability of mRNA polyplexes [2]: good tolerability

K[K2-K(12Oc)2]2 [compound 1851]
RLU values relative to Stp2 analog 1717 ([7]; 15 ng mRNA/well): around 10 fold | transfection efficiency of mRNA polyplexes vs Stp2 analog 1717 ([7]; all tested N/P ratios, 50 and 15 ng mRNA/well): outperformed its Stp2 analog

K(DodOc)2-Stp2-K(DodOc)-K(DodOc) [compound 1725]
transfection efficiency of pDNA polyplexes, DodOc (amide) control vs LAF analog ([4]; N/P 12, 200 ng pCMVLuc/well): ineffective | transfection efficiency of mRNA polyplexes, DodOc (amide) control vs LAF analog ([7]; N/P 12, 62.5 ng mRNA/well): ineffective

K(12Oc)-(^εK-^εK-6-Ahx)-K(12Oc) [compound 1747]
Pdl [1, 11]: 0.146 | Z-average [1, 11]: 91.1 nm | Zeta potential [1, 11]: 17.5 mV

K(12Oc)2-Stp2-K(12Oc)-K(12Oc) [compound 1722]
Pdl [1, 11]: 0.339 | Z-average [1, 11]: 92.5 nm | Zeta potential [1, 11]: 44.4 mV | transfection efficiency (luciferase expression) of pDNA polyplexes [4]: most potent pDNA carriers | transfection efficiency (luciferase expression) of mRNA polyplexes ([7]; 24 h, dose titration 63, 31, 16 ng mRNA/well, vs succPEI and 1218): dose-independent transfection efficiency

Stp-K[K(12Oc)2]-Stp [compound 1715]
Pdl [1, 10]: 0.100 ± 0.010 | Z-average [1, 10]: 89.8 ± 1.4 nm | Zeta potential [1, 10]: 24.47 ± 1.4 mV | dose dependence of pDNA transfection efficiency [4]: good performance only at the highest dose

CCCCCCCCN(CCCCCCCC)CCCCCCCC(=O)NCCCC[C@H](NC(=O)CCCCCCCN(CCCCCCCC)CCCCCCCC)C(=O)NCCSSCCNC(=O)CCC(=O)NCCCC[C@H](NC(=O)CCC(=O)NCCSSCCNC(=O)[C@H](CCCCNC(=O)CCCCCCCN(CCCCCCCC)CCCCCCCC)NC(=O)CCCCCCCN(CCCCCCCC)CCCCCCCC)C(=O)NCCNCCNCCNCCNC(=O)CCC(=O)O [compound 1792, [(8Oc)2)-K-ssbb]2-K-Stp]
cell viability (relative metabolic activity, CellTiter Glo) ([5]; mRNA polyplexes, 25% of the standard mRNA dose of 250 ng/well, vs 1621): significantly improved cell viability

K(12He)-Stp-K(12He) [compound 1765]
mCherry mRNA/eGFP pDNA co-expression (co-delivery efficiency) [3]: most potent structures
